Measurements reported in patent US20150183737A1, “COMPOSITIONS AND METHODS FOR SUBSTRATE-SELECTIVE INHIBITION OF ENDOCANNABINOID OXYGENATION” (Vanderbilt University, priority 2012, published 2015).
Entries after “also recorded” stand apart in the source; their conditions may differ.

Columns and labels:
human MGL-His (MAGL) = target: T1, human MGL-His (MAGL) (Homo sapiens, UniProt Q99685); assay: MAGL activity (Compound A); format: biochemical; settings: in vitro
T1 construct: His; made in house; host or cells: E. coli BL21(DE3) pLysS
T1 sequence (Q99685 1-303): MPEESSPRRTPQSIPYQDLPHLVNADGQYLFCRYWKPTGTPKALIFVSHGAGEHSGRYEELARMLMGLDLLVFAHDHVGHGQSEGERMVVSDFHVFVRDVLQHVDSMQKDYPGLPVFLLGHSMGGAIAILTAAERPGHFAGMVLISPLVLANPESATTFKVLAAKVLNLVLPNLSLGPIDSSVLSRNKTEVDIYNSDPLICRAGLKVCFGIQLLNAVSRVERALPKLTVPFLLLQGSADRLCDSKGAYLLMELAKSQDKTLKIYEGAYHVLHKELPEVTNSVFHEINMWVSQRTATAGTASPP

ICR mice [1] = assay: Novel open field test; format: in vivo
Description: Animals were tested for open-field activity in a novel environment one hour after i.p. injection of compound as described in Sumislawski et al., 2011. Briefly, one-hour sessions were performed using automated experimental chambers (27.9 27.9 cm; MEDOFA-510; MED Associates, Ga., Vermont, United States of America) under constant illumination within a sound-attenuated room. Analysis of open field activity was performed using Activity Monitor v5.10 (MED Associates).

[2] = target: T2, COX-2 in stimulated RAW 264.7 macrophages (Mus musculus, UniProt Q05769); assay: RAW 264.7 macrophage inhibition assay (Compound A); format: cell-based
T2 construct: endogenous in cells; host or cells: RAW 264.7 macrophages stimulated with LPS (and GM-CSF / interferon γ where described)
T2 sequence (Q05769 18-604): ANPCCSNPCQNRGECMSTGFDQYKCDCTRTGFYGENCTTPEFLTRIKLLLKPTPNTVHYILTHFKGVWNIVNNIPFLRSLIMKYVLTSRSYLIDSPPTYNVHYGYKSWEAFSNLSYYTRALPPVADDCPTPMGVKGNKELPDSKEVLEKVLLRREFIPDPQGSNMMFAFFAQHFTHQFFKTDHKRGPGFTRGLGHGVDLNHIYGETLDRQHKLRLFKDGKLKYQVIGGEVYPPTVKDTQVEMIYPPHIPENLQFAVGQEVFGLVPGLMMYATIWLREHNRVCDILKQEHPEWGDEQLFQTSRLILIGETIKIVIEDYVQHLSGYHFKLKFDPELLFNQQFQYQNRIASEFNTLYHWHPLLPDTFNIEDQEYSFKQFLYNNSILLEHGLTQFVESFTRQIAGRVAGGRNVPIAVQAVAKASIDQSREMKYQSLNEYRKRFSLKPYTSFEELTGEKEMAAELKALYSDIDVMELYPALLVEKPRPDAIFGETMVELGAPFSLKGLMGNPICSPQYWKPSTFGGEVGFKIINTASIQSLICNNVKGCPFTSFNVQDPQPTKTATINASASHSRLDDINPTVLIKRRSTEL

[3] = test system: peripheral tissue eCB, NAE, MAG and PG levels; assay: Peripheral tissue NAE, MAG and PG levels after i.p. injection; format: in vivo, mice
Description: Mice were sacrificed by cervical dislocation and decapitation. The brain, lungs, liver, stomach, small intestines, and kidneys were then rapidly removed and frozen on a metal block in dry ice. The tissue was then placed in a tube and stored at −80° C. until extraction, usually one day after harvesting. For PG and eCB analysis, lipid extraction from tissue was carried out as described in Patel et al., 2009.
Analytes were quantified using LC-MS/MS on a Quantum triple-quadrupole mass spectrometer in positive-ion mode using selected reaction monitoring. Detection of eicosanoids was performed as described in Kingsley & Marnett, 2007. For fatty acid analysis the mobile phases used were 80 μM AgOAc with 0.1% (v/v) acetic acid in H2O (solvent A) and 120 μM AgOAc with 0.1% (v/v) acetic acid in MeOH (solvent B). The analytes were eluted using a gradient from 20% A to 99% B over 5 minutes. The transitions used were m/z 300→282 for PEA, m/z 328→310 for SEA, m/z 434→416 for OEA, m/z 456→438 for AEA, m/z 464→446 for AEA-d8, m/z 331→257 for 2-PG, m/z 359→285 for 2-SG, m/z 463→389 for 2-OG, m/z 485→411 for 2-AG, m/z 493→419 for 2-AG-d8, m/z 519→409 for AA, and m/z 527→417 for AA-d8. Peak areas for the analytes were normalized to the appropriate internal standard and then normalized to tissue mass for in vivo samples. […]

humanized rat FAAH = target: T3, humanized rat FAAH (Rattus norvegicus, UniProt P97612, A377T/F194Y/I491V/L192F/S435N/V495M); assay: FAAH activity (Compound A); format: biochemical; settings: in vitro
T3 sequence (P97612 30-579 L192F/F194Y/A377T/S435N/I491V/V495M limits assumed): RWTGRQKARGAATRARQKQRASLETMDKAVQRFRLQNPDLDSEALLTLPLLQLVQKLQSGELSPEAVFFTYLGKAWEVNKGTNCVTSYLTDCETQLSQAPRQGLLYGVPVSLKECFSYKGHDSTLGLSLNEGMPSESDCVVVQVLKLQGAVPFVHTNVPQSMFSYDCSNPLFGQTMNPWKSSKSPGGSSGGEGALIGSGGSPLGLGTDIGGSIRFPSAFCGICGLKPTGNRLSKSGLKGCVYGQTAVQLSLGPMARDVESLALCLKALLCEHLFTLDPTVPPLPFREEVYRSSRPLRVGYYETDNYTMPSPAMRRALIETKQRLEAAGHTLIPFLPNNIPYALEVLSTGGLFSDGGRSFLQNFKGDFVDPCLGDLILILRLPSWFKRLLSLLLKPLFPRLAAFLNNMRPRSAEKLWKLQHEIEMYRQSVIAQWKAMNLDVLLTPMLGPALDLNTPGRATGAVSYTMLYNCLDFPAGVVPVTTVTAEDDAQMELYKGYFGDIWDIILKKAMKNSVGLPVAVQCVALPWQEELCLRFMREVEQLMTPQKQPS

ICR mice [4] = assay: Light-dark box; format: in vivo
[5] = lipopolysaccharide-activated RAW 264.7 macrophages
[6] = stimulated RAW 264.7 macrophages
[7] = 10 mg/kg, two hours after injection

In the case of `COc1ccc2c(c1)c(CC(=O)N1CCOCC1)c(C)n2C(=O)c1ccc(Cl)cc1` [Compound A, 2-[1-(4-Chloro-benzoyl)-5-methoxy-2-methyl-1H-indol-3-yl]-1-morpholin-4-yl-ethanone], the “Inhibition of MAGL” value (human MGL-His (MAGL)) was “did not inhibit”, the “Center distance travelled and center time in the open-field arena” value (ICR mice [1]; 10 mg/kg) was “increased” and the “Open field behavior in mice treated with Rimonabant” value (ICR mice [1]; Rimonabant 3 mg/kg) was “no significant behavioral effect”. The “Exploratory behavior and center time exploration in the open field (Example 8)” value (ICR mice [1]; most pronounced during minutes 40-60) was “dose-dependently increased”, the “Open field behavior (center distance or time) in CB1^(−/−) mice” value (ICR mice [1]; mouse, in vivo) was “did not produce any behavioral effect; also recorded: did not increase” and the “Open field behavior in COX-2^(−/−) mice” value (ICR mice [1]; mouse, in vivo) was “did not produce any significant behavioral effects”. For the same molecule, the “Open field behavior in vehicle-pretreated mice” value (ICR mice [1]; mouse, in vivo) was “exerting anxiolytic actions”, the “Open field behavior in wild type littermates of COX-2^(−/−) mice” value (ICR mice [1]; mouse, in vivo) was “normal anxiolytic-like response” and the Hypolocomotion (ICR mice [1]; open field data) was “did not cause hypolocomotion”. For the same molecule, the “Inhibition of AA oxygenation in cells” value [2, 5] was “without inhibiting AA oxygenation”, the “Inhibition of eCB oxygenation by COX-2 in cells” value [2, 5] was “effective at inhibiting eCB oxygenation” and the 2-AG levels [2, 6] was “increasing; also recorded: concentration-dependently increased”. The AA levels [2, 6] was “without increasing AA levels”, the 2-AG levels ([2]; stimulated RAW 264.7 macrophages, 3 μM (p=0.007)) was “significantly increased” and the “AEA levels in the kidney” value [3, 7] was “significantly increased”. For the same molecule, the “AEA levels in the lung” value [3, 7] was “significantly increased”, the “AEA levels in the small intestine” value [3, 7] was “significantly increased” and the “AEA levels in the stomach” value [3, 7] was “significantly increased”. The “Liver NAE levels” value ([3]; liver) was “did not affect”, the “2-AG or any other MAG in any tissue” value ([3]; peripheral tissues, 10 mg/kg) was “no effect” and the “Levels of any other NAE in any tissue” value ([3]; peripheral tissues, 10 mg/kg) was “did not affect”. For the same molecule, the “PG levels in peripheral tissues” value ([3]; stomach, heart, kidney, lung, intestine) was “no effect”, the “Inhibition of FAAH” value (humanized rat FAAH) was “did not inhibit” and the Light-zone time (ICR mice [4]; 10 mg/kg) was “significantly increased”. For the same molecule, the “Number of light-zone entries” value (ICR mice [4]; 10 mg/kg) was “significantly increased”, the “Overall locomotor activity in the light-dark box” value (ICR mice [4]; 10 mg/kg) was “without significantly affecting” and the “Anxiolytic effects in the light-dark box with Rimonabant” value (ICR mice [4]; Rimonabant 3 mg/kg) was “blocked”.
